Source: patent US20060084688A1, “Aromatic sulfone hydroxamic acid metalloprotease inhibitor” (priority 1997, published 2006)
pIC50: −log10 of the molar value. Where a name gives a salt, the structure may show the parent alone.

Assays:
Test in all cases: biochemical
Settings in all cases: Inhibition Table B
recombinant human MMP-1 = biological target: T1, recombinant human MMP-1 (Homo sapiens, UniProt P03956)
T1 construct: made in house; host or cells: transfected HT-1080 cells
T1 sequence (P03956 100-469): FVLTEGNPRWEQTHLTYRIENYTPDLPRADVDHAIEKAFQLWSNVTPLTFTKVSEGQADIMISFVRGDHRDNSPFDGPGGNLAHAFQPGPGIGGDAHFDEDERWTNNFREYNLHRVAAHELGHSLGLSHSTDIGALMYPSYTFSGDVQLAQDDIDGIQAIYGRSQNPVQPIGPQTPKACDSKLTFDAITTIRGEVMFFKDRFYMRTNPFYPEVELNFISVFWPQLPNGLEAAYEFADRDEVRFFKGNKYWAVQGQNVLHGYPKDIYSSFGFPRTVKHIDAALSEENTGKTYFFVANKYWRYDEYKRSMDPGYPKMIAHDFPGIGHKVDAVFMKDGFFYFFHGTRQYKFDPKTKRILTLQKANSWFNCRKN

recombinant human MMP-2 = biological target: T2, recombinant human MMP-2 (Homo sapiens, UniProt P08253)
T2 sequence (P08253 110-660): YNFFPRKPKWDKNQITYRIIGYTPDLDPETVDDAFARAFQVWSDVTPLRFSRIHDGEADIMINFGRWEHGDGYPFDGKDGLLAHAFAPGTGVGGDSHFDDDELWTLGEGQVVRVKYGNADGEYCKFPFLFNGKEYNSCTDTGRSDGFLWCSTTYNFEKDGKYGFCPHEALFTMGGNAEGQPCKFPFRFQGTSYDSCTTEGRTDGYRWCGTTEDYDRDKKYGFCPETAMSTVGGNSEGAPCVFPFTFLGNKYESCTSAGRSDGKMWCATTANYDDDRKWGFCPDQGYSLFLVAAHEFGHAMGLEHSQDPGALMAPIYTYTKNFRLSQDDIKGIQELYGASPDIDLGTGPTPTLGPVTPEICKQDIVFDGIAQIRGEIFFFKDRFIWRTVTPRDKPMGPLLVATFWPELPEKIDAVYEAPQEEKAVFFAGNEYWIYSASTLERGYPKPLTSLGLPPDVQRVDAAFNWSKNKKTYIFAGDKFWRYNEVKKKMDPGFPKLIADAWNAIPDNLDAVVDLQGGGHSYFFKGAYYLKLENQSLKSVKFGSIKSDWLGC

recombinant human MMP-13 = recombinant human MMP-13 (Homo sapiens, UniProt P45452)

SMILES | pIC50 (recombinant human MMP-1) | pIC50 (recombinant human MMP-2) | pIC50 (recombinant human MMP-13)
O=C(C1CCN(c2ccc(S(=O)(=O)C3(C(=O)NO)CCOCC3)cc2)CC1)N1CCCC1 [Example 179] | < 5.00 | 6.36 | 
CN1CCN(C(=O)C2CCN(c3ccc(S(=O)(=O)C4(C(=O)NO)CCOCC4)cc3)CC2)CC1 [Example 150] | < 5.00 | 5.89 | 7.84
O=C(NCc1ccccn1)C1CCN(c2ccc(S(=O)(=O)C3(C(=O)NO)CCOCC3)cc2)CC1 [Example 196] | < 5.00 | 6.62 | 7.60
O=C(NO)C1(S(=O)(=O)c2ccc(-c3ccc(C(F)(F)F)cc3)cc2)CCOCC1 [Example 221] | 5.80 | > 9.00 | > 9.00
O=C(NC1CCCCCC1)C1CCN(c2ccc(S(=O)(=O)C3(C(=O)NO)CCOCC3)cc2)CC1 [Example 194] |  | 6.78 | 8.10
CN(C)C(=O)C1CCN(c2ccc(S(=O)(=O)C3(C(=O)NO)CCOCC3)cc2)CC1 [Example 147] | < 5.00 | 5.57 | 7.51
N[C@H]1CCN(C(=O)C2CCCN(c3ccc(S(=O)(=O)C4(C(=O)NO)CCOCC4)cc3)C2)C1 (stereo partly drawn) [Example 168] | < 5.00 | < 6.00 | < 7.00
O=C(O)C1CCN(c2ccc(S(=O)(=O)C3(C(=O)NO)CCOCC3)cc2)CC1 [Example 129] | < 5.00 | < 7.00 | 6.00
CCOC(=O)C1CCCN(C(=O)N2CCN(c3ccc(S(=O)(=O)C4(C(=O)NO)CCOCC4)cc3)CC2)C1 (stereo not drawn) [Example 212] | < 5.00 | 7.48 | 7.70
CN(C)C(=O)N1CCN(c2ccc(S(=O)(=O)C3(C(=O)NO)CCOCC3)cc2)CC1 [Example 208] | < 5.00 | 7.57 | 7.57
O=C(C1CCCCCC1)N1CCN(c2ccc(S(=O)(=O)C3(C(=O)NO)CCOCC3)cc2)CC1 [Example 202] | < 5.00 | 7.27 | 8.04
Cc1cc(-c2ccc(S(=O)(=O)C3(C(=O)NO)CCOCC3)cc2)ccc1F [Example 222] | 7.00 | > 9.00 | > 9.00
O=C(C1CCN(c2ccc(S(=O)(=O)C3(C(=O)NO)CCOCC3)cc2)CC1)N1CCOCC1 [Example 131] | < 5.00 | 6.19 | 8.00
O=C(NC1CCCCC1)C1CCN(c2ccc(S(=O)(=O)C3(C(=O)NO)CCOCC3)cc2)CC1 [Example 187] | < 5.00 | 6.54 | 7.92
O=C(C1CCN(c2ccc(S(=O)(=O)C3(C(=O)NO)CCOCC3)cc2)CC1)N1CCNCC1 [Example 151] | < 5.00 | 5.82 | 7.46
CCOC(=O)C1CCCN(C(=O)C2CCN(c3ccc(S(=O)(=O)C4(C(=O)NO)CCOCC4)cc3)CC2)C1 (stereo not drawn) [Example 153] | < 5.00 | 5.57 | 7.87
C#CCN1CCC(C(=O)NO)(S(=O)(=O)c2ccc(Sc3ccc(Cl)cc3)cc2)CC1 [Example 44b, 4-[[4-(4-chlorophenyl)thio]phenyl]sulfonyl]-N-hydroxy-1-(propynyl)-4-piperidinecarboxamide, monohydrochloride] | < 5.00 | 5.10 | < 5.00
O=C(NO)C1CCN(c2ccc(S(=O)(=O)C3(C(=O)NO)CCOCC3)cc2)CC1 [Example 137] | < 5.00 | 6.52 | 7.46
O=C(C1CCCN(c2ccc(S(=O)(=O)C3(C(=O)NO)CCOCC3)cc2)C1)N1CCCC2CCCCC21 (stereo not drawn) [Example 170] |  | < 6.00 | < 7.00
CC(C)[C@H](N)C(=O)N1CCN(c2ccc(S(=O)(=O)C3(C(=O)NO)CCOCC3)cc2)CC1 [Example 204] | < 5.00 | 7.60 | 7.57
O=C(C1CCCN(c2ccc(S(=O)(=O)C3(C(=O)NO)CCOCC3)cc2)C1)N1CCC(N2CCCC2)CC1 (stereo not drawn) [Example 171] | < 5.00 | < 6.00 | < 7.00
O=C(C1CCCN(c2ccc(S(=O)(=O)C3(C(=O)NO)CCOCC3)cc2)C1)N1CCCC1 (stereo not drawn) [Example 172] | < 5.00 | < 6.00 | < 7.00
O=C(Oc1ccc([N+](=O)[O-])cc1)N1CCN(c2ccc(S(=O)(=O)C3(C(=O)NO)CCOCC3)cc2)CC1 [Example 205] | 5.14 | 7.90 | 8.70

SMILES | pIC50 (recombinant human MMP-1) | pIC50 (recombinant human MMP-2) | pIC50 (recombinant human MMP-13)
CCNC(=O)C1CCN(c2ccc(S(=O)(=O)C3(C(=O)NO)CCOCC3)cc2)CC1 [Example 134] | 5.05 | 7.54 | 8.40
CNC(=O)C1CCN(c2ccc(S(=O)(=O)C3(C(=O)NO)CCOCC3)cc2)CC1 [Example 130] | < 5.00 | 7.24 | 7.34
CN(C)CCCN(CCCN(C)C)C(=O)C1CCN(c2ccc(S(=O)(=O)C3(C(=O)NO)CCOCC3)cc2)CC1 [Example 183] | < 5.00 | 6.54 | 7.40
O=C(O)CNC(=O)C1CCCN(c2ccc(S(=O)(=O)C3(C(=O)NO)CCOCC3)cc2)C1 (stereo not drawn) [Example 144] | < 5.00 | 6.10 | 7.51
O=C([C@@H]1CCCN1)N1CCN(c2ccc(S(=O)(=O)C3(C(=O)NO)CCOCC3)cc2)CC1 [Example 203] | 5.07 | 7.51 | 7.52
CNC(=O)C1CCCN(c2ccc(S(=O)(=O)C3(C(=O)NO)CCOCC3)cc2)C1 (stereo not drawn) [Example 139] | < 5.00 |  | 7.60
CCOC(=O)C1CCCN(C(=O)C2CCCN(c3ccc(S(=O)(=O)C4(C(=O)NO)CCOCC4)cc3)C2)C1 (stereo not drawn) [Example 160] | < 5.00 | 5.33 | 7.47
N[C@H]1CCN(C(=O)C2CCN(c3ccc(S(=O)(=O)C4(C(=O)NO)CCOCC4)cc3)CC2)C1 [Example 175] |  | < 6.00 | < 7.00
CN(C)[C@H]1CCN(C(=O)C2CCN(c3ccc(S(=O)(=O)C4(C(=O)NO)CCOCC4)cc3)CC2)C1 [Example 174] | 5.10 | 6.05 | < 7.00
O=C(C1CCN(c2ccc(S(=O)(=O)C3(C(=O)NO)CCOCC3)cc2)CC1)N1CCC(Cc2ccccc2)CC1 [Example 191] | < 5.00 | 6.46 | 8.40
O=C(NO)C1(S(=O)(=O)c2ccc(-c3cc4ccccc4o3)cc2)CCOCC1 [Example 229] | < 5.00 | > 9.00 | > 9.00
CN(C)[C@H]1CCN(C(=O)C2CCCN(c3ccc(S(=O)(=O)C4(C(=O)NO)CCOCC4)cc3)C2)C1 (stereo partly drawn) [Example 167] | < 5.00 | < 6.00 | < 7.00
CCOC(=O)C1CCN(C(=O)N2CCN(c3ccc(S(=O)(=O)C4(C(=O)NO)CCOCC4)cc3)CC2)CC1 [Example 211] | < 5.00 | 7.48 | 7.62
O=C(NC1CCc2ccccc21)C1CCN(c2ccc(S(=O)(=O)C3(C(=O)NO)CCOCC3)cc2)CC1 (stereo not drawn) [Example 188] | < 5.00 | 6.46 | 8.03
CC1(C)C[C@@H]2C[C@@](C)(CN2C(=O)C2CCCN(c3ccc(S(=O)(=O)C4(C(=O)NO)CCOCC4)cc3)C2)C1 (stereo partly drawn) [Example 163] | < 5.00 | 5.40 | 7.11
O=C(O)C1CCCN(c2ccc(S(=O)(=O)C3(C(=O)NO)CCOCC3)cc2)C1 (stereo not drawn) [Example 138] | < 5.00 | < 7.00 | < 7.00
O=C(C1CCN(c2ccc(S(=O)(=O)C3(C(=O)NO)CCOCC3)cc2)CC1)N1CCC(O)C1 (stereo not drawn) [Example 173] | < 5.00 | < 6.00 | < 7.00
C[C@@H]1CN(C(=O)C2CCN(c3ccc(S(=O)(=O)C4(C(=O)NO)CCOCC4)cc3)CC2)C[C@H](C)O1 [Example 176] |  | 6.40 | 7.60
C[C@@H]1CN(C(=O)C2CCCN(c3ccc(S(=O)(=O)C4(C(=O)NO)CCOCC4)cc3)C2)C[C@H](C)O1 (stereo partly drawn) [Example 169] |  | < 6.00 | < 7.00
CCCCNC(=O)C1CCN(c2ccc(S(=O)(=O)C3(C(=O)NO)CCOCC3)cc2)CC1 [Example 181] |  | 6.92 | 8.21
O=C(NCc1ccncc1)C1CCN(c2ccc(S(=O)(=O)C3(C(=O)NO)CCOCC3)cc2)CC1 [Example 195] |  |  | 7.84
O=C(NCCO)C1CCN(c2ccc(S(=O)(=O)C3(C(=O)NO)CCOCC3)cc2)CC1 [Example 132] | < 5.00 | 6.38 | 
O=C(C1CCCN(c2ccc(S(=O)(=O)C3(C(=O)NO)CCOCC3)cc2)C1)N1CCOCC1 (stereo not drawn) [Example 140] | < 5.00 |  | 7.22
